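1) Cells in 96-well plates. 2) Compound, 48 h, 5 concentrations. 3) Linear interpolation between surrounding doses. 4) Unreached endpoint = highest concentration. TGI marks complete inhibition of growth.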
How the values were obtained:
Assay in all cases: NCI tumour cell line growth inhibition, 48 h
786-0 renal = system: 786-0 renal
A498 renal = system: A498 renal
A549 NSCLC = system: A549 NSCLC
ACHN renal = system: ACHN renal
CAKI-1 renal = system: CAKI-1 renal
COLO 205 colon = system: COLO 205 colon
DLD-1 colon = system: DLD-1 colon
DMS 273 small cell lung = system: DMS 273 small cell lung
EKVX NSCLC = system: EKVX NSCLC
HCC-2998 colon = system: HCC-2998 colon
HCT-116 colon = system: HCT-116 colon
HCT-15 colon = system: HCT-15 colon
HL-60(TB) leukemia = system: HL-60(TB) leukemia
HOP-18 NSCLC = system: HOP-18 NSCLC
HOP-62 NSCLC = system: HOP-62 NSCLC
HOP-92 NSCLC = system: HOP-92 NSCLC
HT29 colon = system: HT29 colon
IGROV1 ovarian = system: IGROV1 ovarian
KM20L2 colon = system: KM20L2 colon
LOX IMVI melanoma = system: LOX IMVI melanoma
LXFL 529 NSCLC = system: LXFL 529 NSCLC
M14 melanoma = system: M14 melanoma
M19-MEL melanoma = system: M19-MEL melanoma
MALME-3M melanoma = system: MALME-3M melanoma
MOLT-4 leukemia = system: MOLT-4 leukemia
NCI-H226 lung = system: NCI-H226 lung
NCI-H23 lung = system: NCI-H23 lung
NCI-H460 lung = system: NCI-H460 lung
NCI-H522 lung = system: NCI-H522 lung
OVCAR-3 ovarian = system: OVCAR-3 ovarian
OVCAR-4 ovarian = system: OVCAR-4 ovarian
OVCAR-5 ovarian = system: OVCAR-5 ovarian
OVCAR-8 ovarian = system: OVCAR-8 ovarian
RPMI-8226 leukemia = system: RPMI-8226 leukemia
RXF 393 renal = system: RXF 393 renal
RXF-631 renal = system: RXF-631 renal
SF-268 CNS = system: SF-268 CNS
SF-295 CNS = system: SF-295 CNS
SF-539 CNS = system: SF-539 CNS
SK-MEL-2 melanoma = system: SK-MEL-2 melanoma
SK-MEL-28 melanoma = system: SK-MEL-28 melanoma
SK-MEL-5 melanoma = system: SK-MEL-5 melanoma
SK-OV-3 ovarian = system: SK-OV-3 ovarian
SN12C renal = system: SN12C renal
SNB-75 CNS = system: SNB-75 CNS
SNB-78 CNS = system: SNB-78 CNS
SW-620 colon = system: SW-620 colon
TK-10 renal = system: TK-10 renal
U251 CNS = system: U251 CNS
UACC-257 melanoma = system: UACC-257 melanoma
UACC-62 melanoma = system: UACC-62 melanoma
UO-31 renal = system: UO-31 renal
CCRF-CEM leukemia = system: CCRF-CEM leukemia
DMS 114 small cell lung = system: DMS 114 small cell lung
K-562 leukemia = system: K-562 leukemia
SNB-19 CNS = system: SNB-19 CNS
SR leukemia = system: SR leukemia
XF 498 CNS = system: XF 498 CNS

c1ccc(-c2[o+]c(-c3ccccc3)c(-c3ccccc3)c(-c3ccccc3)c2-c2ccccc2)cc1
TGI (786-0 renal): > 100 µM
TGI (A498 renal): > 100 µM
TGI (A549 NSCLC): > 100 µM
TGI (ACHN renal): > 100 µM
TGI (CAKI-1 renal): > 100 µM
TGI (COLO 205 colon): > 100 µM
TGI (DLD-1 colon): > 100 µM
TGI (DMS 273 small cell lung): > 100 µM
TGI (EKVX NSCLC): > 100 µM
TGI (HCC-2998 colon): > 100 µM
TGI (HCT-116 colon): > 100 µM
TGI (HCT-15 colon): > 100 µM
TGI (HL-60(TB) leukemia): > 100 µM
TGI (HOP-18 NSCLC): > 100 µM
TGI (HOP-62 NSCLC): > 100 µM
TGI (HOP-92 NSCLC): > 100 µM
TGI (HT29 colon): > 100 µM
TGI (IGROV1 ovarian): > 100 µM
TGI (KM20L2 colon): > 100 µM
TGI (LOX IMVI melanoma): > 100 µM
TGI (LXFL 529 NSCLC): > 100 µM
TGI (M14 melanoma): > 100 µM
TGI (M19-MEL melanoma): > 100 µM
TGI (MALME-3M melanoma): > 100 µM
TGI (MOLT-4 leukemia): > 100 µM
TGI (NCI-H226 lung): > 100 µM
TGI (NCI-H23 lung): > 100 µM
TGI (NCI-H460 lung): > 100 µM
TGI (NCI-H522 lung): > 100 µM
TGI (OVCAR-3 ovarian): > 100 µM
TGI (OVCAR-4 ovarian): > 100 µM
TGI (OVCAR-5 ovarian): > 100 µM
TGI (OVCAR-8 ovarian): > 100 µM
TGI (RPMI-8226 leukemia): > 100 µM
TGI (RXF 393 renal): > 100 µM
TGI (RXF-631 renal): > 100 µM
TGI (SF-268 CNS): > 100 µM
TGI (SF-295 CNS): > 100 µM
TGI (SF-539 CNS): > 100 µM
TGI (SK-MEL-2 melanoma): > 100 µM
TGI (SK-MEL-28 melanoma): > 100 µM
TGI (SK-MEL-5 melanoma): > 100 µM
TGI (SK-OV-3 ovarian): > 100 µM
TGI (SN12C renal): > 100 µM
TGI (SNB-75 CNS): > 100 µM
TGI (SNB-78 CNS): > 100 µM
TGI (SW-620 colon): > 100 µM
TGI (TK-10 renal): > 100 µM
TGI (U251 CNS): > 100 µM
TGI (UACC-257 melanoma): > 100 µM
TGI (UACC-62 melanoma): > 100 µM
TGI (UO-31 renal): > 100 µM

O=C(CC1C(=O)Nc2ccccc2S1(=O)=O)Nc1cc(Cl)ccc1Cl (centres undefined)
TGI (786-0 renal): 20.7 µM
TGI (A498 renal): 31.4 µM
TGI (A549 NSCLC): 33.1 µM
TGI (ACHN renal): 35.7 µM
TGI (CAKI-1 renal): 32 µM
TGI (CCRF-CEM leukemia): 62.5 µM
TGI (DLD-1 colon): 33.4 µM
TGI (DMS 114 small cell lung): 27 µM
TGI (EKVX NSCLC): 30 µM
TGI (HCC-2998 colon): 36.2 µM
TGI (HCT-116 colon): 28 µM
TGI (HCT-15 colon): 27.5 µM
TGI (HL-60(TB) leukemia): 35.3 µM
TGI (HOP-92 NSCLC): 30.4 µM
TGI (HT29 colon): 34.3 µM
TGI (IGROV1 ovarian): 26.9 µM
TGI (K-562 leukemia): 42 µM
TGI (KM20L2 colon): 32.6 µM
TGI (LOX IMVI melanoma): 18.1 µM
TGI (LXFL 529 NSCLC): 27.1 µM
TGI (M14 melanoma): 30.6 µM
TGI (M19-MEL melanoma): 34.1 µM
TGI (MALME-3M melanoma): 40.6 µM
TGI (MOLT-4 leukemia): 23.2 µM
TGI (NCI-H226 lung): 35.8 µM
TGI (NCI-H23 lung): 40.4 µM
TGI (NCI-H460 lung): 30.3 µM
TGI (OVCAR-3 ovarian): 29 µM
TGI (OVCAR-4 ovarian): 32.8 µM
TGI (OVCAR-5 ovarian): 71.1 µM
TGI (OVCAR-8 ovarian): 41.9 µM
TGI (RPMI-8226 leukemia): 13.4 µM
TGI (RXF 393 renal): 32.7 µM
TGI (RXF-631 renal): 88.9 µM
TGI (SF-268 CNS): 24.4 µM
TGI (SF-295 CNS): 34.4 µM
TGI (SF-539 CNS): 7.23 µM
TGI (SK-MEL-2 melanoma): 35.4 µM
TGI (SK-MEL-28 melanoma): 41 µM
TGI (SK-MEL-5 melanoma): 30.3 µM
TGI (SN12C renal): 30.2 µM
TGI (SNB-19 CNS): 29.8 µM
TGI (SNB-75 CNS): 31 µM
TGI (SNB-78 CNS): 33.6 µM
TGI (SR leukemia): 24.3 µM
TGI (SW-620 colon): 40.2 µM
TGI (TK-10 renal): 39.9 µM
TGI (U251 CNS): 22.6 µM
TGI (UACC-257 melanoma): > 100 µM
TGI (UACC-62 melanoma): 33.7 µM
TGI (UO-31 renal): 31 µM
TGI (XF 498 CNS): 27.6 µM
